# Experimental data published in patent US10016423B2, “Solid forms of nilotinib hydrochloride” (Apotex Inc., priority 2014, dated 2018).
# Assay: Comparative hygroscopicity testing (water content by Karl Fischer analysis)
# Assay type: physicochemical
# Conditions: for Water content of sample after testing: after 24 hours at 25° C. in desiccator containing saturated ammonium sulphate solution, 1 g sample in unstoppered vessel, KF analysis; for Increase in water content: after vs before 24 hours at 25° C. over saturated ammonium sulphate solution; for Water content of sample before testing: before hygroscopicity testing, Karl Fischer (KF) analysis
# Protocol: The hygroscopicity of form APO-III as reported in WO 2014/059518 A1 was compared with the hygroscopicity of the form APO-VII of the present invention.
# The hygroscopicity testing was conducted by placing 1 g of each sample in an unstoppered weighing vessel in a desiccator containing a saturated ammonium sulphate solution. The desiccator was placed in an oven at 25° C. for 24 hours. The water content was measured before and after the testing by Karl Fischer (KF) analysis.
Water content of sample after testing [% w/w],Increase in water content,Water content of sample before testing [% w/w],Compound
3.5671,3.2795,0.2876,Cc1cn(-c2cc(NC(=O)c3ccc(C)c(Nc4nccc(-c5cccnc5)n4)c3)cc(C(F)(F)F)c2)cn1.Cl [Form APO-III]
0.4757,0.1812,0.2945,Cc1cn(-c2cc(NC(=O)c3ccc(C)c(Nc4nccc(-c5cccnc5)n4)c3)cc(C(F)(F)F)c2)cn1.Cl [Form APO-VII]
